In US20240254129A1, “HETEROCYCLIC COMPOUNDS AND USES THEREOF” (Kumquat Biosciences Inc., priority 2021, published 2024):
Like-named read-outs stand apart in the source and are kept apart here.

What was measured:
[1] = biological target: GST-tagged K-Ras mutant / His-tagged hSOS1 (Homo sapiens, UniProt P01116); assay: HTRF assay, K-Ras mutant / SOS1 interaction; type: binding; details: read-out: IC50 against mutant Kras
Excerpt: (§1) This assay can be also used to assess a selective inhibition of a mutant Ras protein relative to a wildtype, or relative to a different mutant Ras protein. For example, the equilibrium interaction of wildtype Kras or K-Ras mutant (e.g., wildtype or a mutant thereof including those mentioned in Example 6) with SOS1 (e.g., hSOS1) can be assessed as a proxy or an indication for a subject compound's ability to bind and inhibit Ras protein. HTRF assay detects from (i) a fluorescence resonance energy transfer (FRET) donor (e.g., antiGST-Europium) that is bound to GST-tagged K-Ras mutant to (ii) a FRET acceptor (e.g., anti-6His-XL665) bound to a His-tagged hSOS1.
(§2) The assay buffer can contain ˜5 mM HEPES pH 7.4, ˜150 mM NaCl, ˜ 1 mM DTT, 0.05% BSA and 0.0025% (v/v) Igepal. A Ras working solution is prepared in an assay buffer containing typically a suitable amount of the protein construct (e.g., GST-tagged K-Ras mutant) and the FRET donor (e.g., antiGST-Eu(K) from Cisbio, France). A SOS1 working solution is prepared in an assay buffer containing suitable amount of the protein construct (e.g., His-hSOS1) and the FRET acceptor (e.g., anti-6His-XL665 from Cisbio, France). A suitable amount of the protein construct will depend on the range of activity or range of IC50 values being detected or under investigation. For detecting IC50 within a range of 500 nM, the protein constructs of the same range of molarity can be utilized.
(§3) A fixed volume of DMSO with or without test compound is transferred into a 384-well plate. Ras working solution is added to all wells of the test plate. SOS1 working solution is added to all wells except for those that are subsequently filled the inhibitor control solution. Upon incubation for about 10 minutes or longer, the fluorescence is measured with a M1000Pro plate reader (Tecan) using HTRF detection (excitation 337 nm, emission 1: 620 nm, emission 2: 665 nm). Compounds are tested in duplicates at different concentrations (for example, 10 μM, 2.5 μM, 0.63 μM, 0.16 μM, 0.04 µM, 0.01 μM test compound). The ratiometric data (i.e., emission 2 divided by emission 1) is used to calculate IC50 values against Ras using GraphPad Prism (GraphPad software). Following this general procedure, samples were tested with or without a subject compound disclosed herein including compounds exemplified in Table 1 to assess their abilities to inhibit K-Ras signaling or their respective IC50 values against a given Ras protein (e.g., a given mutant K-Ras) of interest.

wildtype Kras / hSOS1 = biological target: T1, wildtype Kras / hSOS1 (Homo sapiens, UniProt P01116); assay: HTRF assay, wildtype Kras / SOS1 interaction; type: binding; details: read-out: IC50 against wildtype Kras
T1 construct: made in house; host or cells: E. coli BL21 (DE3)
T1 sequence (P01116 1-188 isoform P01116-2): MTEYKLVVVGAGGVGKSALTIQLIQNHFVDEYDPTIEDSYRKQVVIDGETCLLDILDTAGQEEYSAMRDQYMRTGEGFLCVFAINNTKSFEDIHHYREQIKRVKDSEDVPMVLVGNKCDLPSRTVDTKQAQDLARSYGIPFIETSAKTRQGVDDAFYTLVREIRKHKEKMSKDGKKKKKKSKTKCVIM
Excerpt: as §1, §2, §3

[2] = compound nos. 102-196, general methodology of example 5

Chain of GST-tagged K-Ras mutant / His-tagged hSOS1 (P01116 whole entry G12D, form open): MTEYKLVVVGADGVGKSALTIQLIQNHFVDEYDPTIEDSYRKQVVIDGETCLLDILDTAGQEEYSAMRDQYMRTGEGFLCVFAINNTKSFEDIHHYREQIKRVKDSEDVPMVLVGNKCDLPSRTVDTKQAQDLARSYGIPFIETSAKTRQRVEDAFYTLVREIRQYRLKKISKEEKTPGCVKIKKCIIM

IC50 ([1]; compound nos. 401-703) [nM] | IC50 (wildtype Kras / hSOS1; compound nos. 401-703) [nM] | IC50 [1, 2] [nM] | IC50 (wildtype Kras / hSOS1; [2]) [nM] | Structure (SMILES)
> 500 | < 500 |  |  | Oc1cc(-c2cnc3c(N4CC5CCC(C4)N5)nc(OC[C@@]45CCCN4C[C@H](F)C5)nc3c2)c2ccccc2c1 (single isomer, unassigned) [Compound 429]
> 500 | > 500 |  |  | Oc1cc(-c2cnc3c(N4CC5CCC(C4)N5)nc(OC[C@@]45CCCN4C[C@H](F)C5)nc3c2)c2ccccc2c1 (single isomer, unassigned) [Compound 610]
 |  | < 500 | < 500 | CN1CCC[C@H]1COc1nc(N2CCNCC(F)(F)C2)c2cc(Cl)c(-c3cccc4sc(N)nc34)c(F)c2n1 [Compound 102, 4-(6-chloro-4-(6,6-difluoro-1,4-diazepan-1-yl)-8-fluoro-2-(((S)-1-methylpyrrolidin-2-yl)methoxy)quinazolin-7-yl)benzo[d]thiazol-2-amine]
 |  | < 500 | < 500 | CN1CCC[C@H]1COc1nc(N2CCNCC(O)C2)c2cc(Cl)c(-c3cccc4sc(N)nc34)c(F)c2n1 (stereo partly drawn) [Compound 103, 1-(7-(2-aminobenzo[d]-thiazol-4-yl)-6-chloro-8-fluoro-2-(((S)-1-methyl-pyrrolidin-2-yl)methoxy)-quinazolin-4-yl)-1,4-diazepan-6-ol]
 |  | < 500 | < 500 | CN1CCC[C@H]1COc1nc(N2CCNCC(F)(F)C2)c2cc(Cl)c(-c3ccc(F)c4sc(N)nc34)c(F)c2n1 [Compound 104, 4-(6-chloro-4-(6,6-difluoro-1,4-diazepan-1-yl)-8-fluoro-2-(((S)-1-methylpyrrolidin-2-yl)methoxy)quinazolin-7-yl)-7-fluorobenzo[d]thiazol-2-amine]
 |  | < 500 | < 500 | Nc1nc2c(-c3c(Cl)cc4c(N5CCNCC(F)(F)C5)nc(OCC56CCCN5CCC6)nc4c3F)cccc2s1 [Compound 105, 4-(6-chloro-4-(6,6-difluoro-1,4-diazepan-1-yl)-8-fluoro-2-((tetrahydro-1H-pyrrol-izin-7a(5H)-yl)methoxy)-quinazolin-7-yl)benzo[d]-thiazol-2-amine]
 |  | < 500 | < 500 | CN1CCC[C@H]1COc1nc(N2CCOCC(F)(F)C2)c2cc(Cl)c(-c3ccc(F)c4sc(N)nc34)c(F)c2n1 [Compound 106, 4-(6-chloro-4-(6,6-difluoro-1,4-oxazepan-4-yl)-8-fluoro-2-(((S)-1-methylpyrrolidin-2-yl)methoxy)quinazolin-7-yl)-7-fluorobenzo[d]thiazol-2-amine]
 |  | > 500 | > 500 | CN1CCC[C@H]1COc1nc(N2CCNC3COCC32)c2cc(Cl)c(-c3cccc4sc(N)nc34)c(F)c2n1 (stereo partly drawn) [Compound 107, 4-(6-chloro-8-fluoro-4-(hexahydrofuro[3,4-b]pyr-azin-1(2H)-yl)-2-(((S)-1-methylpyrrolidin-2-yl)meth-oxy)quinazolin-7-yl)benzo-[d]thiazol-2-amine]
 |  | < 500 | < 500 | CN1CCC[C@H]1COc1nc(N2CCCCC(F)(F)C2)c2cc(Cl)c(-c3ccc(F)c4sc(N)nc34)c(F)c2n1 [Compound 108, 4-(6-chloro-4-(3,3-difluoro-azepan-1-yl)-8-fluoro-2-(((S)-1-methylpyrrolidin-2-yl)methoxy)quinazolin-7-yl)-7-fluorobenzo[d]thiazol-2-amine]
 |  | < 500 | < 500 | Nc1nc2c(-c3c(Cl)cc4c(N5CCNCC(F)(F)C5)nc(OCC56CCCN5CCC6)nc4c3F)ccc(F)c2s1 [Compound 109, 4-(6-chloro-4-(6,6-difluoro-1,4-diazepan-1-yl)-8-fluoro-2-((tetrahydro-1H-pyrrol-izin-7a(5H)-yl)methoxy)-quinazolin-7-yl)-7-fluoro-benzo[d]thiazol-2-amine]
 |  | > 500 | > 500 | Nc1nc2c(-c3c(Cl)cc4c(N5CCNCC(F)(F)C5)ncnc4c3F)cccc2s1 [Compound 110, 4-(6-chloro-4-(6,6-difluoro-1,4-diazepan-1-yl)-8-fluoro-quinazolin-7-yl)benzo[d]-thiazol-2-amine]
 |  | > 500 | > 500 | Cc1ccnc(C(C)C)c1-n1c(=O)nc(N2CCNCC(F)(F)C2)c2cc(F)c(-c3cccc4sc(N)nc34)nc21 [Compound 111, 7-(2-aminobenzo[d]thiazol-4-yl)-4-(6,6-difluoro-1,4-diazepan-1-yl)-6-fluoro-1-(2-isopropyl-4-methylpyr-idin-3-yl)pyrido[2,3-d]pyr-imidin-2(1H)-one]
 |  | < 500 | < 500 | CN1CCC[C@H]1COc1nc(N2CCNC(=O)C(F)(F)C2)c2cc(Cl)c(-c3ccc(F)c4sc(N)nc34)c(F)c2n1 [Compound 112, 1-(7-(2-amino-7-fluoro-benzo[d]thiazol-4-yl)-6-chloro-8-fluoro-2-(((S)-1-methylpyrrolidin-2-yl)meth-oxy)quinazolin-4-yl)-6,6-difluoro-1,4-diazepan-5-one]
 |  | < 500 | < 500 | CN1CCC[C@@H]1COc1nc(N2CCNCC(F)(F)C2)c2cc(Cl)c(-c3cccc4sc(N)nc34)c(F)c2n1 [Compound 113, 4-(6-chloro-4-(6,6-difluoro-1,4-diazepan-1-yl)-8-fluoro-2-(((R)-1-methylpyrrolidin-2-yl)methoxy)quinazolin-7-yl)benzo[d]thiazol-2-amine]
 |  | < 500 | < 500 | Nc1nc2c(-c3c(Cl)cc4c(N5CCOCC(F)(F)C5)nc(OCC56CCCN5CCC6)nc4c3F)cccc2s1 [Compound 114, 4-(6-chloro-4-(6,6-difluoro-1,4-oxazepan-4-yl)-8-fluoro-2-((tetrahydro-1H-pyrrolizin-7a(5H)-yl)methoxy)quin-azolin-7-yl)benzo[d]thiazol-2-amine]
 |  | < 500 | < 500 | Nc1nc2c(-c3c(Cl)cc4c(N5CCOCC(F)(F)C5)nc(OCC56CCCN5CCC6)nc4c3F)ccc(F)c2s1 [Compound 115, 4-(6-chloro-4-(6,6-difluoro-1,4-oxazepan-4-yl)-8-fluoro-2-((tetrahydro-1H-pyrrol-izin-7a(5H)-yl)methoxy)-quinazolin-7-yl)-7-fluoro-benzo[d]thiazol-2-amine]
 |  | < 500 |  | N#CCC1CNCCN(c2nc(OCC34CCCN3CCC4)nc3c(F)c(-c4ccc(F)c5sc(N)nc45)c(Cl)cc23)C1 (centres unmarked) [Compound 188, 2-(1-(7-(2-amino-7-fluoro-benzo[d]thiazol-4-yl)-6-chloro-8-fluoro-2-((tetra-hydro-1H-pyrrolizin-7a(5H)-yl)methoxy)quin-azolin-4-yl)-1,4-diazepan-6-yl)acetonitrile]
> 500 |  |  |  | CN1CCC[C@H]1COc1nc(N2CCCC(NC3CC3)CC2)c2cc(Cl)c(-c3cccc4sc(N)nc34)c(F)c2n1 (stereo partly drawn) [Compound 590, 4-(6-chloro-4-(4-(cycloprop-ylamino)azepan-1-yl)-8-fluoro-2-(((S)-1-methylpyr-rolidin-2-yl)methoxy)quin-azolin-7-yl)benzo[d]thiazol-2-amine]
 | > 500 |  |  | CN1CCC[C@H]1COc1nc(N2CCC(O)C(F)CC2)c2cc(Cl)c(-c3cccc4sc(N)nc34)c(F)c2n1 (stereo partly drawn) [Compound 675, 1-(7-(2-aminobenzo[d]-thiazol-4-yl)-6-chloro-8-fluoro-2-(((S)-1-methyl-pyrrolidin-2-yl)methoxy)-quinazolin-4-yl)-5-fluoro-azepan-4-ol]
